Data set [1] is described as follows: Stability in human liver S9 fraction (HLS9). The data set is classed as in vitro ADME. Particulars: human liver S9 0.4 mg protein/mL, 5 μM test compound, 37° C.; for microsomal CLint at 5 μM: liver S9 fraction, pH 7.4. As to the method:
(§1) Stability in Human Intestinal S9 Fraction (HIS9) and in Human Liver S9 Fraction (HLS9),
(§2) Stock solutions of each test compound (10 mM) were prepared in DMSO and stored at −20° C. Prior to the start of the experiment, the test compounds were diluted to 500 μM in 50% acetonitrile in water. The reaction mixture was prepared in a total volume of 250 μL containing 5 mM MgC2, 1 mM NADPH and 5 μM test compound in 50 mM potassium phosphate buffer (pH 7.4). The reaction was initiated by addition of human liver or intestinal S9 fraction with a final concentration of 0.4 mg protein/mL (Xeno Tech). The reaction mixture was incubated on an orbital shaker at 37° C. At the desired time points (0, 10, 30 and 60 minutes) aliquots of 50 μL were taken and the reaction was stopped by mixing with 150 μL acetonitrile containing internal standard. Standard solutions of each test compound were prepared from the 500 μM solution by diluting the solution to a final concentration of 5 μM in boiled human S9 (0.4 mg protein/mL), 5 mM MgCl2 and 50 mM potassium phosphate buffer (pH 7.4). The standards and samples were kept on ice for 30 min then centrifuged at 3 000 g for 20 minutes at 10° C., there after 10 μL of supernatant was mixed with 200 μL 50% acetonitrile in water. 0.5 μM of each test compound in 50% acetonitrile in water was injected into the LC/MS-MS to determine the daughter ion, declustring potential (DP), collision energy (CE) and collision cell exit potential (CXP) in order to develop a LC/MS-MS method. The compounds were separated using a C18 column with a QTRAP5500 system. The mobile phase consisted of solvent A (98% water, 2% acetonitrile, 0.1% acetic acid or 10 mM ammonium acetate) and solvent B (80% acetonitrile, 20% water, 0.1% acetic acid or 10 mM ammonium acetate). Elution of the compounds was performed by using a gradient of solvent B from 0% to 100%. 5 μL of standard points and samples were injected for analysis with QTRAP5500.
(§3) The amount of parent compound was determined on the basis of the peak area for each time point compared to standard which was set to 5 μM. Intrinsic clearance (CLint) and half-life (t1/2) were determined from the disappearance curves of the test compound using Excel software.

A short description of data set [2]: Stability in human intestinal S9 fraction (HIS9). Particulars: human intestinal S9 0.4 mg protein/mL, 5 μM test compound, 37° C.; for microsomal CLint at 5 μM: intestinal S9 fraction, pH 7.4. The data set is classed as in vitro ADME. The protocol: as §1, §2, §3
Data set [3] relates to HepG2. Nature of the data set: Cell cytotoxicity assay, HEPG2. The data set is classed as cell-based. Particulars: HepG2 cells, 5 days at 37° C., XTT dye. As to the method:
(§4) Cells were seeded 24 hours prior to compound addition. Each test compound (serially diluted from 100 μM) was added to Huh7 (1.5×10^4 cells/well) or HepG2 (1.5×10^4 cells/well), and allowed to incubate for 5 days at 37° C. A medium only control was used to determine the minimum absorbance value and an untreated cell value. At the end of the growth period, XTT dye from Polysciences Europe GmbH was added to each well. The absorbance at 450 nm with a reference wavelength of 600 nm was read with a Sunrise (Tecan) using the medium only control wells as blanks. The 50% inhibition value (CC50) was determined by comparing the degree of inhibition (compared to cell control) plotted against compound concentration. Results from the dilution series were fitted to a sigmoidal dose-response curve.
(§5) Compounds of the invention were evaluated in these assays to assess the stability in human intestinal S9 fraction (HIS9) and human liver S9 fraction (HLS9), and for Cell Cytotoxicity in HUH7, HEP3B and HEPG2 cells.
For orientation: Tetrazolium dyes change colour on reduction, which living cells bring about.

For data set [4], the system named is Huh7. Description: Cell cytotoxicity assay, HUH7. In kind it is cell-based. Particulars: Huh7 cells, 5 days at 37° C., XTT dye. The protocol:
as §4, §5

Data on 22 compounds can be found in patent US11447511B2, “Dioxolane analogues of uridine for the treatment of cancer” (MEDIVIR AB, priority 2014, dated 2022).

Usually CC50 stands for the concentration giving 50% cytotoxicity. Low values mean harm at low concentration, high ones better tolerance by the cells. Usually microsomal CLint stands for a measure of how fast metabolising enzymes remove a compound, apart from limits set by blood flow.

Regarding `CCCC(CCC)COC(=O)C(Cc1ccccc1)NP(=O)(OCC1OCC(n2ccc(N)nc2=O)O1)Oc1ccccc1` (mixture of isomers) [13 diamix 4:1], the “CLint Liver S9” value in data set [1] came to 85 µL/min/mg. Also, the “CLint Intestinal S9” value in data set [2] is 27 µL/min/mg. The CC50 in data set [3] was 0.163 µM; in data set [4], 0.663 µM.

For the compound `CCC[C@@H](C)OC(=O)[C@H](C)NP(=O)(OC[C@H]1OC[C@@H](n2ccc(N)nc2=O)O1)Oc1ccccc1` (single isomer, unassigned) [30 dia-2], the microsomal CLint at 5 μM in data set [1] is 120 µL/min/mg; in data set [2] it was 11 µL/min/mg.

In data set [1], `CC[C@H](C)OC(=O)[C@H](C)NP(=O)(OC[C@H]1OC[C@@H](n2ccc(N)nc2=O)O1)Oc1ccccc1` (single isomer, unassigned) [31 dia-2] had a microsomal CLint at 5 μM of 8 µL/min/mg. Also, the “CLint Intestinal S9” value in data set [2] came to 6 µL/min/mg.

As to `CC[C@@H](C)OC(=O)[C@H](C)NP(=O)(OC[C@H]1OC[C@@H](n2cc(F)c(N)nc2=O)O1)Oc1ccccc1` (single isomer, unassigned) [32 dia-2], the microsomal CLint at 5 μM came to 27 µL/min/mg in data set [1] and 8 µL/min/mg in data set [2].

In the case of `CC(C)OC(=O)[C@H](C)NP(=O)(OC[C@H]1OC[C@@H](n2ccc(N)nc2=O)O1)Oc1cccc2ccccc12` (single isomer, unassigned; dia-1) [5 dia-1], the “CLint Liver S9” value in data set [1] was 32 µL/min/mg. For the same compound, the “CLint Intestinal S9” value in data set [2] was 21 µL/min/mg. For the same compound, the values for the CC50 in data set [3] and in data set [4] were 0.107 µM and 0.465 µM, respectively.

In the case of `C[C@H](NP(=O)(OC[C@H]1OC[C@@H](n2ccc(N)nc2=O)O1)Oc1cccc2ccccc12)C(=O)OC1CCCCC1` (single isomer, unassigned; dia-1) [6 dia-1], the “CLint Liver S9” value in data set [1] came out at 91 µL/min/mg. Besides, the “CLint Intestinal S9” value in data set [2] worked out at 36 µL/min/mg. For the same compound, the half-maximal cytotoxic concentration (CC50) in data set [3] is 0.092 µM; in data set [4] it was 0.258 µM.

Take `Nc1ccn([C@@H]2CO[C@H](COP(=O)(N[C@@H](Cc3ccccc3)C(=O)OC3CCCCC3)Oc3ccc(Br)cc3)O2)c(=O)n1` (single isomer, unassigned; dia-1) [7 dia-1]: the “CLint Liver S9” value in data set [1] worked out at 148 µL/min/mg. In data set [2], the “CLint Intestinal S9” value was found to be 147 µL/min/mg. Further, the CC50 in data set [3] was determined as 0.24 µM; in data set [4] it was 1.02 µM.

With `CCCC(CCC)COC(=O)[C@H](C)NP(=O)(OC[C@H]1OC[C@@H](n2ccc(N)nc2=O)O1)Oc1ccccc1` (single isomer, unassigned; dia-1) [8 dia-1], the results for the CC50 in data set [3] and in data set [4] were 0.007 µM and 0.123 µM, respectively.

Consider `C[C@H](NP(=O)(OC[C@H]1OC[C@@H](n2ccc(N)nc2=O)O1)Oc1cccc2ccccc12)C(=O)OCc1ccccc1` (single isomer, unassigned; dia-1) [9 dia-1], for which the “CLint Liver S9” value in data set [1] stood at 133 µL/min/mg. Further, the “CLint Intestinal S9” value in data set [2] was found to be 171 µL/min/mg. For the same compound, the CC50 turned out to be 0.023 µM in data set [3] and 0.164 µM in data set [4].

With `Nc1ccn([C@@H]2CO[C@H](COP(=O)(N[C@@H](Cc3ccccc3)C(=O)OCc3ccccc3)Oc3cccc(C4CC4)c3)O2)c(=O)n1` (single isomer, unassigned; dia-1) [12 dia-1], in data set [1], the “CLint Liver S9” value is 182 µL/min/mg. For the same compound, the “CLint Intestinal S9” value in data set [2] was 300 µL/min/mg. The cytotoxic concentration (CC50) amounted to 0.481 µM in data set [3] and 4.33 µM in data set [4].

For `CCCC(CCC)COC(=O)[C@H](C)NP(=O)(OC[C@H]1OC[C@@H](n2ccc(N)nc2=O)O1)Oc1cccc2ccccc12` (single isomer, unassigned; dia-1) [14 dia-1], the “CLint Liver S9” value in data set [1] is 88 µL/min/mg. Moreover, the “CLint Intestinal S9” value in data set [2] is 30 µL/min/mg. For the same compound, the CC50 in data set [3] was determined as 0.016 µM; in data set [4] it was 0.216 µM.

With `CCC(CC)COC(=O)[C@H](C)NP(=O)(OC[C@H]1OC[C@@H](n2ccc(N)nc2=O)O1)Oc1ccccc1` (single isomer, unassigned; dia-1) [15 dia-1], the “CLint Liver S9” value in data set [1] was 167 µL/min/mg. The “CLint Intestinal S9” value in data set [2] was determined as 87 µL/min/mg. Besides, the CC50 stood at 0.037 µM in data set [3] and 0.025 µM in data set [4].

In the case of `CC(C)OC(=O)[C@@H](C)NP(=O)(OC[C@H]1OC[C@@H](n2ccc(N)nc2=O)O1)Oc1ccccc1` (single isomer, unassigned; dia-1) [17 dia-1], in data set [1], the “CLint Liver S9” value turned out to be 6 µL/min/mg. For the same compound, the “CLint Intestinal S9” value in data set [2] amounted to 6 µL/min/mg. The CC50 in data set [3] and in data set [4] was 50 µM each time.

Consider `C[C@H](NP(=O)(OC[C@H]1OC[C@@H](n2ccc(N)nc2=O)O1)Oc1ccccc1)C(=O)OCc1ccccc1` (single isomer, unassigned; dia-1) [19 dia-1], for which the “CLint Liver S9” value in data set [1] is 19 µL/min/mg. Further, in data set [2], the “CLint Intestinal S9” value is 26 µL/min/mg. The results for the CC50 in data set [3] and in data set [4] were 0.018 µM and 0.091 µM, respectively.

Regarding `CCC[C@H](C)OC(=O)[C@H](C)NP(=O)(OC[C@H]1OC[C@@H](n2ccc(N)nc2=O)O1)Oc1ccccc1` (single isomer, unassigned; dia-1) [20 dia-1], the “CLint Liver S9” value in data set [1] stood at 45 µL/min/mg. The “CLint Intestinal S9” value in data set [2] came out at 21 µL/min/mg. The CC50 in data set [3] worked out at 0.074 µM; in data set [4], 0.216 µM.

Turning to `CCC(CC)OC(=O)[C@H](C)NP(=O)(OC[C@H]1OC[C@@H](n2ccc(N)nc2=O)O1)Oc1ccccc1` (single isomer, unassigned; dia-1) [21 dia-1], the “CLint Liver S9” value in data set [1] was determined as 61 µL/min/mg. Also, the “CLint Intestinal S9” value in data set [2] is 29 µL/min/mg. Also, the CC50 in data set [3] turned out to be 0.163 µM; in data set [4], 0.574 µM.

For `C[C@H](NP(=O)(OC[C@H]1OC[C@@H](n2ccc(N)nc2=O)O1)Oc1cccc2ccccc12)C(=O)OC1CCCC1` (single isomer, unassigned; dia-1) [22 dia-1], in data set [1], the “CLint Liver S9” value came out at 49 µL/min/mg. Also, the “CLint Intestinal S9” value in data set [2] was found to be 52 µL/min/mg. The CC50 in data set [3] was 0.012 µM; in data set [4], 0.033 µM.

As to `COC(=O)[C@H](C)NP(=O)(OC[C@H]1OC[C@@H](n2ccc(N)nc2=O)O1)Oc1ccc(Br)cc1` (single isomer, unassigned; dia-1) [27 dia-1], the “CLint Liver S9” value in data set [1] was found to be 38 µL/min/mg. Further, the “CLint Intestinal S9” value in data set [2] is 11 µL/min/mg. In addition, the CC50 worked out at 0.151 µM in data set [3] and 1.44 µM in data set [4].

As to `CC[C@@H](C)OC(=O)[C@H](C)NP(=O)(OC[C@H]1OC[C@@H](n2ccc(N)nc2=O)O1)Oc1cccc(C2CCC2)c1` (single isomer, unassigned; dia-1) [33 dia-1], the “CLint Liver S9” value in data set [1] worked out at 180 µL/min/mg. The “CLint Intestinal S9” value in data set [2] turned out to be 27 µL/min/mg.

With `CC(C)OC(=O)[C@@H](C)NP(=O)(OC[C@H]1OC[C@@H](n2ccc(N)nc2=O)O1)Oc1ccccc1` (single isomer, unassigned; dia-2) [17 dia-2], in data set [1], the “CLint Liver S9” value is 6 µL/min/mg. This compound also gave a CC50 in data set [4] of 50 µM.

Consider `CCCC(CCC)COC(=O)[C@H](C)NP(=O)(OC[C@H]1OC[C@@H](n2ccc(N)nc2=O)O1)Oc1ccc(Br)cc1` (single isomer, unassigned; dia-2) [23 dia-2], for which the “CLint Liver S9” value in data set [1] amounted to 300 µL/min/mg. In data set [2], the “CLint Intestinal S9” value turned out to be 20 µL/min/mg.

Regarding `CC[C@@H](C)OC(=O)[C@H](C)NP(=O)(OC[C@H]1OC[C@@H](n2ccc(N)nc2=O)O1)Oc1cccc(C2CCC2)c1` (single isomer, unassigned; dia-2) [33 dia-2], the “CLint Liver S9” value in data set [1] was 230 µL/min/mg. In addition, the “CLint Intestinal S9” value in data set [2] was 75 µL/min/mg.
